According to US20240315991A1, “USES OF HNF4 ALPHA AGONISTS” (Sanford Burnham Prebys Medical Discovery Institute, priority 2023, published 2024):
“Also recorded” adds a separate entry of the source.

Tests used:
HSP60 mRNA = assay: RT-PCR of mouse liver, HSP60; format: in vivo; settings: HFD+NCT vs HFD, FIG. 3M
Protocol: (§1) NCT oral administration. Four-week-old male C57BL/6J (JAX cat #000664) mice were purchased from Jackson laboratory and were maintained in a 12 h light/dark cycle throughout the experiment. Prior to the experiments, mice were acclimated for 2 weeks. Six-week-old mice with similar body weights were randomized to a normal diet (NC), a high fat diet (HFD) (Research Diets, cat #D12492 60 kcal % fat) or HFD containing 4000 ppm NCT (HFD+NCT) (Research Diets, 60 kcal % fat+4000 ppm NCT), which was calculated to provide approximately 400 mg/kg/d NCT. HFD chow containing NCT was made with gray dye to distinguish it from regular HFD chow that had green dye. Mice for each treatment group were placed in separate cages. Equal amounts of fresh chow were provided every week to all mice. Body weight gain and food intake were measured every week for 10 weeks. After 10 weeks of chow treatment, mice were sacrificed for analysis. […]
(§2) RT-PCR. […] Quantitative real time PCR (RT-PCR) analysis was performed using SYBR® Select Master Mix (Applied Biosystems) and an ABI 7900HT thermal cycler (Applied Biosystems, Thermo Fisher Scientific). Ct values were normalized to 18s rRNA and are expressed as fold change over samples from mice fed NC or cultured human hepatocytes without NCT.

[1] = tested on: C57BL/6 mice fed high fat diet (HFD); assay: HFD induced weight gain and hepatic steatosis, NCT in HFD chow for 10 weeks; format: in vivo
Protocol: NCT oral administration. Four-week-old male C57BL/6J (JAX cat #000664) mice were purchased from Jackson laboratory and were maintained in a 12 h light/dark cycle throughout the experiment. Prior to the experiments, mice were acclimated for 2 weeks. Six-week-old mice with similar body weights were randomized to a normal diet (NC), a high fat diet (HFD) (Research Diets, cat #D12492 60 kcal % fat) or HFD containing 4000 ppm NCT (HFD+NCT) (Research Diets, 60 kcal % fat+4000 ppm NCT), which was calculated to provide approximately 400 mg/kg/d NCT. HFD chow containing NCT was made with gray dye to distinguish it from regular HFD chow that had green dye. Mice for each treatment group were placed in separate cages. Equal amounts of fresh chow were provided every week to all mice. Body weight gain and food intake were measured every week for 10 weeks. After 10 weeks of chow treatment, mice were sacrificed for analysis. All animal experiments were approved by the Institutional Animal Care and Use Committee (IACUC) of the Sanford Burnham Prebys Medical Discovery Institute in accordance with national regulations. Sample size was chosen based on the prior study of NCT delivered by IP injection.
Sample collection. Mouse samples were collected as described previously. Briefly, on the final day of treatment mice received dextrose (3 g/kg of body weight) by IP injection to stimulate insulin secretion, which inhibits FFA release from adipocytes, leaving liver-derived FFA as the major source of circulating FFA. One hour later, blood samples were collected via retro-orbital bleeding and mice were euthanized using pentobarbital. Mice were dissected aseptically and liver, epididymal fat, and body weights were measured and pictures taken. Dissected liver samples were washed immediately in sterile cold PBS and cut into small pieces. Half of the liver samples were snap frozen using liquid nitrogen and stored at −80° C. for RNA, protein isolation, and liver lysate preparations. The other half were fixed in 4% of cold paraformaldehyde (PFA, Santa Cruz Biotechnology, USA) and processed for histomorphometry and immunofluorescence.
Oil Red O staining (in vivo) and analysis. Oil red O staining was performed as described previously. Slides containing frozen liver tissue sections from mice were air dried for 10-20 min followed by rehydration in distilled water. Sections were immersed in absolute propylene glycol (Cat #151957, MP Biomedicals, LLC, USA) for 2 min followed by 0.5% in Oil red O solution (Cat #K043, Poly Scientific R&D, USA) for 2 h. Slides were then differentiated in 85% propylene glycol solution, washed with dH2O for 2 h, and mounted using glycerin jelly mounting medium. All slides were scanned at a magnification of ×20 using the Aperio Scanscope FL system (Aperio Technologies Inc., Vista, CA, USA). The liver area stained with oil red O was measured using image J software as described, with some modifications as follow, Oil red O-stained liver images were opened in Image J software. Using the Analyze>Set Scale command, the scale bar of the images was set to 200 μm. RGB images were then converted into grayscale images using the Image>Type>RGB Stack command and were split into red, blue and green channels. Using the Image>Adjust>Threshold command, the threshold was manually set to highlight the Oil red O-stained lipid droplets in the green channel. The same threshold was used for all the images in all treatment groups and the % oil red O-stained area was obtained using the Analyze->Measure tool command. Fold change was calculated by normalizing the values to images from mice fed normal chow.
Triglyceride analysis. The TG level in mouse liver, serum, and stool was measured according to manufacturer's instructions using the Triglyceride calorimetric Assay Kit (Cat #10010303, Cayman Chemicals, USA). Liver and stool TG was normalized with liver and stool weight, respectively. Fold change was calculated by normalizing to values from mice fed NC. […]

HNF4α = target: T1, HNF4α (Homo sapiens, UniProt P41235); settings: cited from earlier work
T1 sequence (P41235 1-474): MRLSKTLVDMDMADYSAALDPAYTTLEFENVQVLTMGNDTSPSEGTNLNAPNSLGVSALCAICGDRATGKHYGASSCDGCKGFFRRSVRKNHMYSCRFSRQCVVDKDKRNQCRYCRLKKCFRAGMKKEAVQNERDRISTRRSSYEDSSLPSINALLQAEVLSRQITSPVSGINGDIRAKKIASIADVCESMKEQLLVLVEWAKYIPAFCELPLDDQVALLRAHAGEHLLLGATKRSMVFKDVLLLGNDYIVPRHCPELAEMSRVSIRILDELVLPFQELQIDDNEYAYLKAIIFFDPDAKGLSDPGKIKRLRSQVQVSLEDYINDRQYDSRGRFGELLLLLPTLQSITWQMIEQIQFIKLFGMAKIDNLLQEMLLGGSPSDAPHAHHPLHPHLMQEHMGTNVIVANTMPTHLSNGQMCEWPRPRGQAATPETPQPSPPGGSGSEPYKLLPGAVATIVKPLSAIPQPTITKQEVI

PPARγ mRNA = assay: RT-PCR of mouse liver, PPARγ; format: in vivo; settings: HFD+NCT vs HFD, to the level of mice on normal chow, FIG. 3N
Protocol: as §1, §2

ILIβ mRNA = assay: RT-PCR of mouse liver, ILIβ; format: in vivo; settings: HFD+NCT vs HFD, FIG. 5C
Protocol: as §1, §2

[2] = HFD containing 4000 ppm NCT, end of the experiment at 10 weeks

With `O=C(/C=C/c1ccc(O)c(O)c1)NCCc1ccc(O)cc1` [NCT, N-trans caffeoyltyramine] the “HSP60 mRNA level in liver” value (HSP60 mRNA) was “reverse the induction”, the “body weight compared with mice fed HFD alone” value ([1]; C57BL/6 mice, HFD containing 4000 ppm NCT, 10 weeks) was “substantially less; also recorded: weighed less” and the “week at which lower body weight than HFD alone became evident” value ([1]; HFD containing 4000 ppm NCT) was 5 week. The “body weight less than mice fed HFD” value [1, 2] was roughly 10 g, the “difference in body weight vs mice fed HFD” value [1, 2] was 35-40% and the “Oil Red O staining of liver” value ([1]; HFD+NCT vs HFD, 10 weeks) was “decreased”. For the same compound, the liver redness ([1]; HFD+NCT vs HFD, 10 weeks) was “increase; also recorded: redder”, the liver size ([1]; HFD+NCT vs HFD, 10 weeks) was “reductions” and the liver weight ([1]; HFD+NCT vs HFD, 10 weeks) was “lower”. The obesity ([1]; HFD+NCT vs HFD, 10 weeks) was “markedly less obese”, the subcutaneous fat ([1]; HFD+NCT vs HFD, 10 weeks) was “substantially less” and the visceral adiposity ([1]; HFD+NCT vs HFD, 10 weeks) was “reductions”. The “hepatic TG level” value ([1]; HFD+NCT vs HFD, 10 weeks, normalized to liver weight) was “decreased”, the “epididymal fat pad weight” value ([1]; HFD+NCT vs HFD, end of study, normalized with total body weight) was “no change” and the “toxicity from NCT consumption” value ([1]; mice fed HFD containing NCT) was “no evidence of any toxicity”. The mitochondrial mass ([1]; mice fed HFD containing NCT vs HFD alone) was “increased”, the “specificity for HNF4α” value (HNF4α; HNF4α siRNA ablates their effect) was “exhibit specificity for HNF4α” and the “activation of HNF4α, potency compared with Alverine and Benfluorex” value (HNF4α) was “much more potent activators”. The “PPARγ expression in liver” value (PPARγ mRNA) was “reduce”, the “expression level of ILIβ in mouse liver” value (ILIβ mRNA) was “non-significant” and the “expression level of ILIβ in mouse liver” value (ILIβ mRNA; listed as Compound A) was “not affect”.
